Where a SMILES comes first, the peptide text is derived from it. Bridges are numbered along the chain shown (N, C = ends).

The experiment is described as follows: Inhibition of bovine trypsin using benzoyl-L-arginine p-nitroanilide as substrate after 5 to 60 mins. Set-up: species or system Bos taurus.
In turn, `CC(C)C[C@H](N)C(=O)N[C@H](C(=O)N[C@@H](CCCNC(=N)N)C(=O)NCC(=O)N[C@H]1CSSC[C@@H](C(=O)N[C@@H](Cc2ccccc2)C(=O)N[C@H](C(=O)N[C@@H](CCCNC(=N)N)C(=O)O)C(C)C)NC(=O)[C@@H]2CCCN2C(=O)[C@H](CCCCN)NC(=O)[C@@H]2CCCN2C(=O)[C@@H]2CCCN2C(=O)[C@H](Cc2ccc(O)cc2)NC(=O)[C@H](CO)NC(=O)[C@H](CCCCN)NC(=O)[C@H](C)NC(=O)[C@H](Cc2c[nH]c3ccccc23)NC1=O)C(C)C` (H-LVRGCWAKSYPPKPCFVR-OH; disulfide 5-15) returned an inhibition constant (Ki) of 1110 nM.

Molecule `CC(C)C[C@H](N)C(=O)N[C@H](C(=O)N[C@@H](CCCNC(=N)N)C(=O)NCC(=O)N[C@H]1CSSC[C@@H](C(=O)N[C@@H](Cc2ccccc2)C(=O)N[C@H](C(=O)N[C@@H](CCCNC(=N)N)C(=O)O)C(C)C)NC(=O)[C@@H]2CCCN2C(=O)[C@H](CCCCN)NC(=O)[C@@H]2CCCN2C(=O)[C@@H]2CCCN2C(=O)[C@H](Cc2ccc(O)cc2)NC(=O)[C@H](CO)NC(=O)[C@H](CCCCN)NC(=O)[C@H]([C@@H](C)O)NC(=O)[C@H](C)NC1=O)C(C)C` (H-LVRGCATKSYPPKPCFVR-OH; disulfide 5-15) showed a Ki of 670 nM.

The molecule `CC(C)C[C@H](N)C(=O)N[C@H](C(=O)N[C@@H](CCCNC(=N)N)C(=O)NCC(=O)N[C@H]1CSSC[C@@H](C(=O)O)NC(=O)[C@@H]2CCCN2C(=O)[C@H](CCCCN)NC(=O)[C@@H]2CCCN2C(=O)[C@@H]2CCCN2C(=O)[C@H](Cc2ccc(O)cc2)NC(=O)[C@H](CO)NC(=O)[C@H](CCCCN)NC(=O)[C@H]([C@@H](C)O)NC(=O)[C@H](Cc2c[nH]c3ccccc23)NC1=O)C(C)C` (H-LVRGCWTKSYPPKPC-OH; disulfide 5-15) yielded a Ki of 322 nM.

In turn, `CC(C)C[C@H](N)C(=O)N[C@H](C(=O)N[C@@H](CCCNC(=N)N)C(=O)NCC(=O)N[C@H]1CSSC[C@@H](C(=O)N[C@@H](Cc2ccccc2)C(=O)N[C@H](C(=O)N[C@@H](CCCNC(=N)N)C(=O)O)C(C)C)NC(=O)[C@H](C)NC(=O)[C@H](CCCCN)NC(=O)[C@@H]2CCCN2C(=O)[C@@H]2CCCN2C(=O)[C@H](Cc2ccc(O)cc2)NC(=O)[C@H](CO)NC(=O)[C@H](CCCCN)NC(=O)[C@H]([C@@H](C)O)NC(=O)[C@H](Cc2c[nH]c3ccccc23)NC1=O)C(C)C` (H-LVRGCWTKSYPPKACFVR-OH; disulfide 5-15) yielded a Ki of 252 nM.

`CC(C)C[C@H](N)C(=O)N[C@H](C(=O)N[C@@H](CCCNC(=N)N)C(=O)NCC(=O)N[C@H]1CSSC[C@@H](C(=O)N[C@@H](Cc2ccccc2)C(=O)N[C@H](C(=O)N[C@@H](CCCNC(=N)N)C(=O)O)C(C)C)NC(=O)[C@@H]2CCCN2C(=O)[C@H](C)NC(=O)[C@@H]2CCCN2C(=O)[C@@H]2CCCN2C(=O)[C@H](Cc2ccc(O)cc2)NC(=O)[C@H](CO)NC(=O)[C@H](CCCCN)NC(=O)[C@H]([C@@H](C)O)NC(=O)[C@H](Cc2c[nH]c3ccccc23)NC1=O)C(C)C` (H-LVRGCWTKSYPPAPCFVR-OH; disulfide 5-15) displayed a Ki of 400 nM.

Consider `CC[C@H](C)[C@@H]1NC(=O)[C@@H]2CCCN2C(=O)[C@@H]2CCCN2C(=O)[C@H]([C@@H](C)CC)NC(=O)[C@H](CO)NC(=O)[C@H](CCCCN)NC(=O)[C@H]([C@@H](C)O)NC(=O)[C@@H](NC(=O)[C@H](CCCNC(=N)N)NC(=O)CN)CSSC[C@@H](C(=O)N[C@@H](Cc2ccccc2)C(=O)N2CCC[C@H]2C(=O)N[C@@H](CC(=O)O)C(=O)O)NC1=O`, for which the Ki was 20 nM.

On to `CC(C)C[C@H](N)C(=O)N[C@H](C(=O)N[C@@H](CCCNC(=N)N)C(=O)NCC(=O)N[C@H]1CSSC[C@@H](C(=O)N[C@@H](Cc2ccccc2)C(=O)N[C@H](C(=O)N[C@@H](CCCNC(=N)N)C(=O)O)C(C)C)NC(=O)[C@@H]2CCCN2C(=O)[C@H](CCCCN)NC(=O)[C@@H]2CCCN2C(=O)[C@@H]2CCCN2C(=O)[C@H](Cc2ccc(O)cc2)NC(=O)[C@H](C)NC(=O)[C@H](CCCCN)NC(=O)[C@H]([C@@H](C)O)NC(=O)[C@H](Cc2c[nH]c3ccccc23)NC1=O)C(C)C` (H-LVRGCWTKAYPPKPCFVR-OH; disulfide 5-15), for which the affinity corresponds to a Ki of 245 nM.

In turn, `CC(C)C[C@H](N)C(=O)N[C@H](C(=O)N[C@@H](CCCNC(=N)N)C(=O)NCC(=O)N[C@H]1CSSC[C@@H](C(=O)N[C@@H](Cc2ccccc2)C(=O)N[C@H](C(=O)N[C@@H](CCCNC(=N)N)C(=O)O)C(C)C)NC(=O)[C@H](CCCCN)NC(=O)[C@@H]2CCCN2C(=O)[C@@H]2CCCN2C(=O)[C@H](Cc2ccc(O)cc2)NC(=O)[C@H](CO)NC(=O)[C@H](CCCCN)NC(=O)[C@H]([C@@H](C)O)NC1=O)C(C)C` (H-LVRGCTKSYPPKCFVR-OH; disulfide 5-13) registered an inhibitory constant (Ki) of 245 nM.

`C[C@@H](O)[C@@H]1NC(=O)[C@H](Cc2c[nH]c3ccccc23)NC(=O)[C@@H](N)CSSC[C@@H](C(=O)O)NC(=O)[C@@H]2CCCN2C(=O)[C@H](CCCCN)NC(=O)[C@@H]2CCCN2C(=O)[C@@H]2CCCN2C(=O)[C@H](Cc2ccc(O)cc2)NC(=O)[C@H](CO)NC(=O)[C@H](CCCCN)NC1=O`: the Ki amounted to 335 nM.

`CC(C)C[C@H](NC(=O)[C@H](C)NC(=O)CN)C(=O)N[C@@H](CCCNC(=N)N)C(=O)NCC(=O)N[C@H]1CSSC[C@@H](C(=O)N[C@@H](CCCCN)C(=O)O)NC(=O)[C@@H]2CCCN2C(=O)[C@H](CCCCN)NC(=O)[C@@H]2CCCN2C(=O)[C@@H]2CCCN2C(=O)[C@H](Cc2ccc(O)cc2)NC(=O)[C@H](CO)NC(=O)[C@H](CCCCN)NC(=O)[C@H]([C@@H](C)O)NC(=O)[C@H](Cc2c[nH]c3ccccc23)NC1=O` (H-GALRGCWTKSYPPKPCK-OH; disulfide 6-16) had a Ki of 116 nM.

Take `CC(C)C[C@H](N)C(=O)N[C@H](C(=O)N[C@@H](CCCNC(=N)N)C(=O)NCC(=O)N[C@H]1CSSC[C@@H](C(=O)N[C@@H](Cc2ccccc2)C(=O)N[C@H](C(=O)N[C@@H](CCCNC(=N)N)C(=O)O)C(C)C)NC(=O)[C@@H]2CCCN2C(=O)[C@H](CCCCN)NC(=O)[C@@H]2CCCN2C(=O)[C@@H]2CCCN2C(=O)[C@H](C)NC(=O)[C@H](CO)NC(=O)[C@H](CCCCN)NC(=O)[C@H]([C@@H](C)O)NC(=O)[C@H](Cc2c[nH]c3ccccc23)NC1=O)C(C)C` (H-LVRGCWTKSAPPKPCFVR-OH; disulfide 5-15): the Ki was 142 nM.

In turn, `C[C@H](NC(=O)[C@@H](N)CO)C(=O)N1CCC[C@H]1C(=O)N[C@@H](CCCNC(=N)N)C(=O)NCC(=O)N[C@H]1CSSC[C@@H](C(=O)N[C@@H](CCCCN)C(=O)O)NC(=O)[C@@H]2CCCN2C(=O)[C@H](CCCCN)NC(=O)[C@@H]2CCCN2C(=O)[C@@H]2CCCN2C(=O)[C@H](Cc2ccc(O)cc2)NC(=O)[C@H](CO)NC(=O)[C@H](CCCCN)NC(=O)[C@H]([C@@H](C)O)NC(=O)[C@H](Cc2c[nH]c3ccccc23)NC1=O` (H-SAPRGCWTKSYPPKPCK-OH; disulfide 6-16) gave a Ki of 129 nM.

For the molecule `CC(C)C[C@H](N)C(=O)N[C@H](C(=O)N[C@@H](CCCNC(=N)N)C(=O)NCC(=O)N[C@H]1CSSC[C@@H](C(=O)N[C@@H](Cc2ccccc2)C(=O)N[C@H](C(=O)N[C@@H](CCCNC(=N)N)C(=O)O)C(C)C)NC(=O)[C@@H]2CCCN2C(=O)[C@H](CCCCN)NC(=O)[C@H](C)NC(=O)[C@@H]2CCCN2C(=O)[C@H](Cc2ccc(O)cc2)NC(=O)[C@H](CO)NC(=O)[C@H](CCCCN)NC(=O)[C@H]([C@@H](C)O)NC(=O)[C@H](Cc2c[nH]c3ccccc23)NC1=O)C(C)C` (H-LVRGCWTKSYPAKPCFVR-OH; disulfide 5-15), the inhibition constant Ki amounted to 155 nM.

As usually defined, the Ki is the dissociation constant of the complex between target and ligand, obtained from inhibition or displacement. Read a low Ki as tighter binding.
